Source: patent US10017527B2, “KLK4 inhibitors” (Universiteit Antwerpen, priority 2014, dated 2018)
Read-outs that look alike come from different tables or passages of the source.

Experiments:
Type in all cases: biochemical
[1] = molecular target: T1, KLK8 (human) (Homo sapiens, UniProt O60259); experiment: KLK8 inhibition, fluorogenic substrate Boc-Val-Pro-Arg-AMC
T1 construct: purchased Viktor Magdolen, TUMunich (TUM), supplied by an academic laboratory
T1 sequence (O60259 33-260): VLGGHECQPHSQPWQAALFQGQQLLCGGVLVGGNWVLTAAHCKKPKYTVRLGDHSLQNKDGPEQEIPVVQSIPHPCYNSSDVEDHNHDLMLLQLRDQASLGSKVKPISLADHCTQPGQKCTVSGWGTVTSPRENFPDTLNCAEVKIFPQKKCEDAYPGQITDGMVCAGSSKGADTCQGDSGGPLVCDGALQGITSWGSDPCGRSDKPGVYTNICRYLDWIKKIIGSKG
Text: (§1) The IC50 values For KLK1, KLK2 and KLK8 were obtained in a similar way. For plasmin, tPA, thrombin, Fxa, HNE, Plasma kallikrein Chromogenic substrates were used (absorption: 405 nm). (KLK2, KLK4, KLK8 were supplied by Viktor Magdolen TUMunich (TUM)).

[2] = molecular target: T2, Thrombine (human plasma) (Homo sapiens, UniProt P00734); experiment: Thrombin inhibition, chromogenic substrate Biophen CS-21(66)
T2 construct: purchased Sigma-Aldrich; host or cells: human plasma

[3] = molecular target: T3, KLK4 (Homo sapiens, UniProt Q9Y5K2); experiment: KLK4 enzymatic inhibition, fluorogenic substrate Boc-Val-Pro-Arg-AMC
T3 construct: purchased Viktor Magdolen (TUM), supplied by an academic laboratory
T3 sequence (Q9Y5K2 31-254): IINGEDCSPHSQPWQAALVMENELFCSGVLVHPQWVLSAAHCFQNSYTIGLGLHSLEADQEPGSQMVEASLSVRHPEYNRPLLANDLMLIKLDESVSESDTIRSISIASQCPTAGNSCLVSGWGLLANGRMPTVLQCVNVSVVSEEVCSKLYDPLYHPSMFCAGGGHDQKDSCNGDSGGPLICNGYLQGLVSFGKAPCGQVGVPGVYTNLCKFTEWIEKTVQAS
Protocol: The substrate was obtained form Bachem and the enzyme was provided by Viktor Magdolen (TUM). The reaction was monitored with an excitation wavelength of 355 nm and emission wavelength of 460 nm. The initial rate was determined between 2500000 and 4500000 mRFU/min. The reaction mixture contained 25 μM substrate and approximately 1 mU of enzyme in 145 μL of buffer in a final volume of […]. A 50 mM Tris buffer, pH 8.3, was used. From each inhibitor concentration, 5 μL was added, obtaining a final concentration from 0 to 250 μM in a total volume of 0.2 mL. Activity measurements were routinely performed in duplicate. […] IC50 values were obtained by fitting the data with the four-parameter logistics equation using Grafit 7.
[formula] where s=slope factor, v=rate, I0=inhibitor concentration, and range=the fitted uninhibited value minus the background. The equation assumes they falls with increasing x.
(§2) Inhibitor stock solutions were prepared in DMSO and stored at −20° C. Because the compounds described in this paper completely inactivate KLK4 following pseudo first-order kinetics, the IC50 value is inversely correlated with the second-order rate constant of inactivation. For a simple pseudo first-order inactivation process, the activity after incubation with inhibitor (vi) varies with the inhibitor concentration (i), as described in the following equation: vi=v0×e^−k t, where vo is the activity in absence of inhibitor, k is the second-order rate constant of inactivation, and t is the time. The inactivation rate constant was determined from the time course of inhibition.

[4] = molecular target: T4, Neurtophil Elastase(human) (Homo sapiens, UniProt P08246); experiment: Neutrophil elastase inhibition, chromogenic substrate MeOSuc-Ala-Ala-Pro-Val-pNA
T4 construct: purchased Enzo-life sciences
T4 sequence (P08246 30-267): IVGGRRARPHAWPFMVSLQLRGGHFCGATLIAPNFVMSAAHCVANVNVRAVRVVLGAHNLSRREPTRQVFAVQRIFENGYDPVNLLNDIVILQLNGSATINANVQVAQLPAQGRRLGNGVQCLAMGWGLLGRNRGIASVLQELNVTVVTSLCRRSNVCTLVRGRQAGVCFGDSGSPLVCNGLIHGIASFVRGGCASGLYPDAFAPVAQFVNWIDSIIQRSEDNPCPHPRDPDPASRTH
Text: as §1

[5] = molecular target: AcHE (Homo sapiens, UniProt P22303); experiment: AcHE inhibition
Sequence of AcHE (P22303 32-614): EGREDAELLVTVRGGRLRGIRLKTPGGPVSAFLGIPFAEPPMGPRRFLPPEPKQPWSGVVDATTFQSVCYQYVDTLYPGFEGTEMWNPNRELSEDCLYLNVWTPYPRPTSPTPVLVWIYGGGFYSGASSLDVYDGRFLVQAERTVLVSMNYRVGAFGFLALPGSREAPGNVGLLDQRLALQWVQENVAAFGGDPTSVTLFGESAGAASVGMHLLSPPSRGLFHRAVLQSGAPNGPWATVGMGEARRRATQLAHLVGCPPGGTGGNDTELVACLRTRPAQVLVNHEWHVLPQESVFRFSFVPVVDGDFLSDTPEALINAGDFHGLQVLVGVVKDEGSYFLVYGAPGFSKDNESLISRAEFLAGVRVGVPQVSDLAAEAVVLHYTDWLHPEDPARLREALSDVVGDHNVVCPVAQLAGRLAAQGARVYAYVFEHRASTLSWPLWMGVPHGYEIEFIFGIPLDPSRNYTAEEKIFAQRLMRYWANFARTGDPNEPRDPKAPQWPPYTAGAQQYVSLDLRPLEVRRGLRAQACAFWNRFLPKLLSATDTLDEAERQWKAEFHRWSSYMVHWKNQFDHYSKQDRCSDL

[6] = molecular target: T5, PlasmaKLK (human plasma) (Homo sapiens, UniProt P03952); experiment: Plasma kallikrein inhibition, chromogenic substrate Biophen CS-31(02)
T5 construct: purchased Sigma-Aldrich; host or cells: human plasma
T5 sequence (P03952 391-638 limits assumed): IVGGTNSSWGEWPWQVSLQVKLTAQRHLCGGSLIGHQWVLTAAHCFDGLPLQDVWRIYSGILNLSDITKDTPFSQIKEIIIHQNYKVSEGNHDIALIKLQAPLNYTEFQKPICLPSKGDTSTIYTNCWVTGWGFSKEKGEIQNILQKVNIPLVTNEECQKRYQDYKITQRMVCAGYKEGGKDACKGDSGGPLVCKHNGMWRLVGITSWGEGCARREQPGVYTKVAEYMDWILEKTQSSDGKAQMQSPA
T5 sequence (P03952 20-390 partner limits assumed): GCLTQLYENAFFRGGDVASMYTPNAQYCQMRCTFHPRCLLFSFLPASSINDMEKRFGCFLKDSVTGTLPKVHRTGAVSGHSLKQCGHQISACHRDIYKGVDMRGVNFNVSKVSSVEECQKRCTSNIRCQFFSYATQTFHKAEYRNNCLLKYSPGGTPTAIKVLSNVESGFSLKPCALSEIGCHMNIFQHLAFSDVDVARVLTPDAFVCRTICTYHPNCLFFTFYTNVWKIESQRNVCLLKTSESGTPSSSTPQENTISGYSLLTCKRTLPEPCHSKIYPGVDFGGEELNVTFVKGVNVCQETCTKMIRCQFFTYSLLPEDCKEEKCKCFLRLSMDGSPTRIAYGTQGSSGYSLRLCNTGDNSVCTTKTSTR
Text: as §1

[7] = molecular target: T6, tPA (recombinant) (Homo sapiens, UniProt P00750); experiment: tPA inhibition, chromogenic substrate Biophen CS-05(88)
T6 construct: purchased Nodia
T6 sequence (P00750 36-562, species assumed): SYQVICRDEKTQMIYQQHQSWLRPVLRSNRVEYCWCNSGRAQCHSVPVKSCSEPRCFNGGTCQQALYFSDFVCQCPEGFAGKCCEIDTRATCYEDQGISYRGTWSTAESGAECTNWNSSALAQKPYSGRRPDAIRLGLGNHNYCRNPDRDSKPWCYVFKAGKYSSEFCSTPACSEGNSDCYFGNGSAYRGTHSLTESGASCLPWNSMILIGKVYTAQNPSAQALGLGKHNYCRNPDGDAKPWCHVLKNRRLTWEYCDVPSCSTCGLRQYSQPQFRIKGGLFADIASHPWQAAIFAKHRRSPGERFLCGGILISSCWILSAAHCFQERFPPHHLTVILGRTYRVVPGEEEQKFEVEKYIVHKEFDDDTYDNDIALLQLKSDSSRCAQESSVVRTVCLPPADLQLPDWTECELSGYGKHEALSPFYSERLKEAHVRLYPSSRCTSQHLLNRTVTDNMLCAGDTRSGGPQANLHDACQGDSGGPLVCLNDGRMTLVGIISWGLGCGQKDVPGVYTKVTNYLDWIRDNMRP
Text: as §1

[8] = molecular target: T3, KLK4; experiment: KLK4 inactivation kinetics from progress curves (kobs vs inhibitor concentration)
Protocol: as §2
The inhibitor was mixed with the substrate (250 μM final concentration), and the buffer solution with the enzyme was added at the time zero. […] The progress curves show the absorbance of aminomethylcoumarine produced as a function of time. Initially, no inhibitor is bound to the enzyme, and the tangent to the progress curve (dA/dt) is proportional to the concentration of the free enzyme. The concentration of free enzyme decreases over time due to the kinetics of inhibitor binding, as described above. Progress curves were recorded in pseudo first-order conditions ([I]0>>[E]0) and with less than 10% conversion of the substrate during the entire time course. In these conditions, dA/dt decreases exponentially with time. The progress curves were fitted with the integrated rate equation to yield a value for kobs, a pseudofirst-order rate constant At=v0[1−e^−k^obs^t]/kobs+A0 where At=absorbance at time t, A0=absorbance at time zero, and v0=uninhibited initial rate.
The apparent second-order rate constant (kapp) was calculated from the slope of the linear part of the plot of kobs versus the inhibitor concentration ([I]0). In case of competition between the inhibitor and the substrate, kapp is smaller than the “real” second order rate constant k discussed above because a certain fraction of the enzyme is present as an enzyme-substrate complex. kapp depends on the substrate concentration used in the experiment, as described by Lambeir et al. (Lambeir, Borloo et al. 1996).

[9] = molecular target: T7, FXa (Homo sapiens, UniProt P00742); experiment: FXa inhibition, chromogenic substrate Biophen CS-11(32)
T7 construct: purchased Nodia
T7 sequence (P00742 235-488 limits assumed): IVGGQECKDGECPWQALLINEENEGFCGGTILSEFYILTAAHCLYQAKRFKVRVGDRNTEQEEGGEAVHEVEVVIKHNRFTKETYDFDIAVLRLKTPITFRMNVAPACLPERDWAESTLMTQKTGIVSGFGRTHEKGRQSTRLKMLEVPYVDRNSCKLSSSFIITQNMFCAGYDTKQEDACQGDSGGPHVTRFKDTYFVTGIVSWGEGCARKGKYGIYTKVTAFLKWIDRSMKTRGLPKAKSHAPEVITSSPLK
T7 sequence (P00742 41-179 partner limits assumed): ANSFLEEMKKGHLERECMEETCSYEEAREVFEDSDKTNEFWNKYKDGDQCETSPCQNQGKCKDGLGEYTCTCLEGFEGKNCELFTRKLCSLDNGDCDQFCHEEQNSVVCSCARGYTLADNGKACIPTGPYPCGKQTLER
Text: as §1

[10] = molecular target: T8, Matriptase (Homo sapiens, UniProt Q9Y5Y6); experiment: Matriptase inhibition
T8 sequence (Q9Y5Y6 1-855): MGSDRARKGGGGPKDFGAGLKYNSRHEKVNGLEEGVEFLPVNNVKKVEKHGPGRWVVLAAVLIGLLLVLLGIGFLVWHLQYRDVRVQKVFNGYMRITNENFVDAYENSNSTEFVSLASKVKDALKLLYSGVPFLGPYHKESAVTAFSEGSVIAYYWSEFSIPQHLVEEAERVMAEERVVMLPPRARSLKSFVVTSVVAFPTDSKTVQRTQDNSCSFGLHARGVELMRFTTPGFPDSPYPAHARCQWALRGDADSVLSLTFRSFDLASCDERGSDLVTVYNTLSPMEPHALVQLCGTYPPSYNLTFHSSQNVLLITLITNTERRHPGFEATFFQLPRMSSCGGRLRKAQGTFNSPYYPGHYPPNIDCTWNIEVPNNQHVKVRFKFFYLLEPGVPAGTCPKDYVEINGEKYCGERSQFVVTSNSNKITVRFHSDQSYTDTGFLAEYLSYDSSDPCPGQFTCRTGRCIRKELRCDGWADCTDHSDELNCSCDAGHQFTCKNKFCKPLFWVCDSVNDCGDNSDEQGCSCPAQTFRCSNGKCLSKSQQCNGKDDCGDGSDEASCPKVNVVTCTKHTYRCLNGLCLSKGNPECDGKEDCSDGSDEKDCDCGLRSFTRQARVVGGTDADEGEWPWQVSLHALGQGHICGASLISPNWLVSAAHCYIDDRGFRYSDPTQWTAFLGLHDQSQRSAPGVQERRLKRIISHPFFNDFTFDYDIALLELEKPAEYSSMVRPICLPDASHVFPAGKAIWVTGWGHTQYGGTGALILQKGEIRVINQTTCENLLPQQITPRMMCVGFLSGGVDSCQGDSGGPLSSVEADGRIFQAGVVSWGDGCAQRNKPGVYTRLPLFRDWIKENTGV

[11] = molecular target: T9, uPA (recombinant) (Homo sapiens, UniProt P00749); experiment: uPA inhibition, chromogenic substrate Biophen CS-61(44)
T9 construct: purchased Nodia

[12] = molecular target: T10, KLK1 (human) (Homo sapiens, UniProt P06870); experiment: KLK1 inhibition, fluorogenic substrate H-Pro-Phe-Arg-AMC
T10 construct: purchased Prospec
T10 sequence (P06870 25-262): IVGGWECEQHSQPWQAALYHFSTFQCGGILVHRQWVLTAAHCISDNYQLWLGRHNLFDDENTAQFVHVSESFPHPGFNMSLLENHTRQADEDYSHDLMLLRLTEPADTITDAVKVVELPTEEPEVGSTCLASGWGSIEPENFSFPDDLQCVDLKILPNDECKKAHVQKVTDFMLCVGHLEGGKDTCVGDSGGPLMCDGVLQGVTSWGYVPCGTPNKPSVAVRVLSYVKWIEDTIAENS
Text: as §1

[13] = molecular target: T11, Plasmine (human plasma) (Homo sapiens, UniProt P00747); experiment: Plasmin inhibition, chromogenic substrate Biophen CS-21(66)
T11 construct: purchased Sigma-Aldrich; host or cells: human plasma
T11 sequence (P00747 581-810 limits assumed): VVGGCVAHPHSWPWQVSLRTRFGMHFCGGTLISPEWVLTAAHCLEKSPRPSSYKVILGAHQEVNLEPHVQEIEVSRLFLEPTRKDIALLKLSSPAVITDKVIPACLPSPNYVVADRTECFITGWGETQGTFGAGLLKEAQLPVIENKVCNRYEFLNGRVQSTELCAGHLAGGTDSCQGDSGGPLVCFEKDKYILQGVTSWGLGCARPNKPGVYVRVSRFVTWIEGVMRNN
T11 sequence (P00747 98-580 partner limits assumed): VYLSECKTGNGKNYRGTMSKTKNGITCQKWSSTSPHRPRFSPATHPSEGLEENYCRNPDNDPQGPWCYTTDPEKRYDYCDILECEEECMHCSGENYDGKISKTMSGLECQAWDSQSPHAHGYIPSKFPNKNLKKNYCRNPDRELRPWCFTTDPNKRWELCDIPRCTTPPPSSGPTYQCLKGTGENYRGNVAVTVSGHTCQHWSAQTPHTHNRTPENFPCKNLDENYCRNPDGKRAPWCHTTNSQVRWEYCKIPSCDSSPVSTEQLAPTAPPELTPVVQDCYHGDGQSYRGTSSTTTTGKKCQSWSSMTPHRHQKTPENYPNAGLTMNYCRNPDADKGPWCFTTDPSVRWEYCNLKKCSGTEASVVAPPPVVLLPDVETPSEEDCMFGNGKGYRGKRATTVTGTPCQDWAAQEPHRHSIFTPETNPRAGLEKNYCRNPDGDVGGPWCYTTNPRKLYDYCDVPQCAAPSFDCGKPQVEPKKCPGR
Text: as §1

[14] = molecular target: T12, KLK2 (human) (Homo sapiens, UniProt P20151); experiment: KLK2 inhibition, fluorogenic substrate H-Pro-Phe-Arg-AMC
T12 construct: purchased Viktor Magdolen, TUMunich (TUM), supplied by an academic laboratory
T12 sequence (P20151 25-261): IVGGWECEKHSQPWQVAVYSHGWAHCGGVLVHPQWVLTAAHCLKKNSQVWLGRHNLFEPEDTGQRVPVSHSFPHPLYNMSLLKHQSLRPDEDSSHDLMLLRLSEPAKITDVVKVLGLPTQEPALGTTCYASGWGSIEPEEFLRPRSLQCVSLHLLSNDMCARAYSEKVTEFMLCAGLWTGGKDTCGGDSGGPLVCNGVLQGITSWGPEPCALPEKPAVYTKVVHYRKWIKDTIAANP
Text: as §1

[15] = Thrombin, Tris buffer pH 8.3, read-out: IC50 THR
[16] = 15 min pre-incubation at 37° C., Tris buffer pH 8.3, read-out: IC50 KLK4
[17] = Tris buffer pH 7.8, read-out: IC50 HNE
[18] = Plasma KLK, Tris buffer pH 7.8, read-out: IC50 pKLK
[19] = Tris buffer pH 8.3, read-out: IC50 tPA
[20] = Tris buffer pH 8.3, read-out: IC50 FXa
[21] = Tris buffer pH 8.8, read-out: IC50 uPA
[22] = Plasmin, Tris buffer pH 7.4, read-out: IC50 PLM

Compound	IC50 [2, 15] [µM]	IC50 [3, 16] [nM]	IC50 [4, 17] [µM]	IC50 [6, 18] [µM]	IC50 [7, 19] [µM]	IC50 [9, 20] [µM]	IC50 ([10]; Matriptase, read-out: IC50 MAT) [µM]	IC50 [11, 21] [µM]	IC50 [1] [µM]	IC50 [2] [µM]	IC50 [3] [nM]	IC50 [4] [µM]	IC50 [5] [µM]	IC50 [6] [µM]	IC50 [7] [µM]	IC50 [9] [µM]	IC50 [10] [µM]	IC50 [11] [µM]	IC50 [12] [µM]	IC50 [13] [µM]	also measured
2-((1E,3E,5Z)-5-(1-(6-((2-(4-(1-(diphenoxyphosphoryl)-1-(4-guanidinophenyl)-3-oxo-4,7,10-trioxa-2-azaundecan-11-yl)-1H-1,2,3-triazol-1-yl)ethyl)amino)-6-oxohexyl)-3,3-dimethylindolin-2-ylidene)penta-1,3-dien-1-yl)-1,3,3-trimethyl-3H-indol-1-ium [Compound 134]	10 to 250	100 to 1000	10 to 250	10 to 250	> 250	2.5 to 10	2.5 to 10	2.5 to 10													IC50 ([1]; Tris buffer pH 8, read-out: IC50 KLK8): 2.5 to 10 µM; IC50 ([5]; read-out: IC50 AcHE): 10 to 250 µM; kapp KLK4 ([8]; apparent second-order rate constant, substrate 250 μM): 2240 M⁻¹ s⁻¹; Irreversible (KLK4) ([8]; irreversible binding to KLK4, Yes/No): Yes/; IC50 ([12]; Tris buffer pH 7.8, read-out: IC50 KLK1): 2.5 to 10 µM; IC50 [13, 22]: 10 to 250 µM
COCCOC(=O)NC(c1ccc(NC(=N)N)cc1)P(=O)(Oc1ccccc1)Oc1ccccc1 (stereo not drawn) [Compound 29, 2-methoxyethyl ((diphenoxyphosphoryl)(4-guanidinophenyl)methyl)carbamate 2,2,2-trifluoroacetate]									10 to 250	> 250	100 to 1000	2.5 to 10	10 to 250	> 250	> 250	> 250	2.5 to 10	10 to 250	10 to 250	10 to 250	IC50 [14]: 100 to 1000 nM
CCCCCC(=O)NCCOC(=O)NC(c1ccc(NC(=N)N)cc1)P(=O)(Oc1ccccc1)Oc1ccccc1 (stereo not drawn) [Compound 31, 2-hexanamidoethyl ((diphenoxyphosphoryl)(4-guanidinophenyl)methyl) carbamate 2,2,2-trifluoroacetaat]									10 to 250	> 250	100 to 1000	10 to 250	10 to 250	10 to 250	> 250	10 to 250	2.5 to 10	10 to 250	10 to 250	> 250	
N=C(N)Nc1ccc(C(NC(=O)OCCOCCOCc2cn(CCOCCOCCOCCNC(=O)CN3CCN(CC(=O)O)CCN(CC(=O)O)CCN(CC(=O)O)CC3)nn2)P(=O)(Oc2ccccc2)Oc2ccccc2)cc1 (stereo not drawn) [Compound 83, 2,2′,2″-(10-(14-(4-(1-(diphenoxyphosphoryl)-1-(4-guanidinophenyl)-3-oxo-4,7,10-trioxa-2-azaundecan-11-yl)-1H-1,2,3-triazol-1-yl)-2-oxo-6,9,12-trioxa-3-azatetradecyl)-1,4,7,10-tetraazacyclododecane-1,4,7-triyl)triacetic acid]										10 to 250	< 100		10 to 250	10 to 250	2.5 to 10	10 to 250	2.5 to 10	2.5 to 10	2.5 to 10	10 to 250	
CCCCCCOC(=O)NC(c1ccc(NC(=N)N)cc1)P(=O)(Oc1ccccc1)Oc1ccccc1 (stereo not drawn) [Compound 92, Hexyl ((diphenoxyphosphoryl)(4-guanidinophenyl)methyl)carbamate]									2.5 to 10		< 100	2.5 to 10	10 to 250	2.5 to 10	2.5 to 10	2.5 to 10		2.5 to 10	1 to 2.5	2.5 to 10	IC50 [14]: 100 to 1000 nM
CCN(CC)c1ccc2c(-c3ccccc3C(=O)N3CCN(C(=O)CCCCCCCn4cc(COCCOCCOC(=O)NC(c5ccc(NC(=N)N)cc5)P(=O)(Oc5ccccc5)Oc5ccccc5)nn4)CC3)c3ccc(=[N+](CC)CC)cc-3oc2c1 (stereo not drawn) [Compound 133, N-(6-(diethylamino)-9-(2-(4-(8-(4-(1-(diphenoxyphosphoryl)-1-(4-guanidinophenyl)-3-oxo-4,7,10-trioxa-2-azaundecan-11-yl)-1H-1,2,3-triazol-1-yl)octanoyl)piperazine-1-carbonyl)phenyl)-3H-xanthen-3-ylidene)-N-ethylethanaminium]	10 to 250	< 100	10 to 250	10 to 250	> 250	2.5 to 10	2.5 to 10	2.5 to 10													IC50 [13, 22]: 10 to 250 µM
